Test results from patent publication US10035791B2, “Bicyclic compound and pharmaceutical composition thereof for treating stroke and use thereof” (China Medical University, priority 2016, dated 2018).

Columns and labels:
NSCs = assay: Proliferation index (PI) measurement of CFSE-labelled NSCs by flow cytometry; format: cell-based, mice; conditions: 1 μM for 16 hours; control group 4.37, FIG. 11C
Description: To prepare the NSCs, after removal of meninges, subventricular zones (SVZ) of lateral ventricles from adult mice brain (4 week-of-age) are aseptically isolated and dissociated as previously described (J Cell Sci 2006; 119, 4467-4474). All steps are operated under sterile conditions. Then, neurosphere culture are prepared in neurobasal (NB) medium (Gibco BRL) supplemented with 2% of B27 (Gibco BRL), 2 mM of L-glutamine (PAN Biotech), 100 U/ml of penicillin/0.1 mg/L of streptomycin (Gibco BRL). For maintenance and expansion of the cultures, the NB/B27 is further supplemented with 2 μg/mL of heparin (Sigma), 20 ng/mL of FGF-2 (R&D Systems) and 20 ng/mL of EGF (R&D Systems). Neurosphere cultures are maintained at 37° C. in a humidified incubator with 5% CO2. For clonal/low density cultures, primary neurospheres grown at high density are dissociated into a single cell suspension and reseeded into 96-well plates at 100 cells per ml of media and the number of newly formed neurospheres is counted after 7 days. In addition, the Bmi-1 expressions, SOX2 expressions, Nestin expressions, Musashi-1 expressions, BrdU expressions and ki-67 expressions of the newly formed neurospheres are determined by the immunofluorescence staining.
To analyze whet her he Compound 1 modulates the NSCs proliferation, this example examines the effect of the HIF-1α-Bmi-1 pathway on the self-renewal of the neurosphere. […]

ischemic rats = assay: Body swing test; format: in vivo, Sprague-Dawley (SD) rats; conditions: 1 mg/kg, vs control group; 1, 7, 14 and 28 days after the injection, FIG. 19A
Excerpt: The ischemic rats are induced by an ischemia-reperfusion model to simulate transient focal cerebral ischemia in rats. Test animals are male Sprague-Dawley (SD) rats weighing 250-300 g. The rats are anesthetized with chloral hydrate (0.4 g/kg IP) and subjected to cerebral ischemia. The ischemia-reperfusion model is induced by ligations of bilateral common carotid arteries (CCAs) and a right middle cerebral artery (MCA). The bilateral CCAs are clamped with non-traumatic arterial clips, and the right MCA is ligated with an 10-0 nylon suture. After 90 minutes ischemia, the suture on the MCA and the arterial clips on CCAs are removed to allow reperfusion. Core body temperature is monitored with a thermistor probe (Hewlett-Packard Model 21090A probe, Hewlett-Packard Company, Andover, Mass.), and maintained at 37° C. with a heating pad during anesthesia. After recovery from anesthesia, rat body temperature is maintained at 37° C. with a heat lamp. […]
The body swing test is used to assess body asymmetry after MCA ligation. Initially, the ischemic rats are suspended by their tail 10 cm above the cage floor, and lateral body movements are recorded. Specifically, the frequency with which the initial head swing contra-lateral to the ischemic side is counted in twenty consecutive tests and is normalized to the baseline score.

HIF-1α = assay: Nuclear translocation of the HIF-1α in the PCCs under hypoxia, double immunofluorescence; format: cell-based, C57BL/6 mice; conditions: 1 μM 2-ME2 for 16 hours, then 1% O2 for 8 hours, FIG. 6A
Description: (§1) Test cells are primary cortical cultures (PCCs) in this example. The PCCs are prepared from cerebral cortexes of gestation day 17 embryos from C57BL/6 mice as described previously (Cell Death Differ 2008; 15: 143-151). The PCCs are maintained under serum-free conditions in neurobasal medium (Invitrogen), supplemented with B-27 supplement (2%; invitrogen), glutamine (0.5 mM; Sigma Aldrich), glutamate ([…]; Sigma Aldrich), penicillin (100 U/ml) and streptomycin ([…]; Invitrogen). At 4 days in vitro, half of the medium is removed and replaced with fresh medium without glutamate. The cultures are maintained in a humidified incubator at 37° C. with 5% CO2. At 7 days in vitro, the PCCs are used for experimentation.
The subcellular locations of the HIF-1α and the Bmi-1 in the PCCs under hypoxia are examined by double immunofluorescence study. The PCCs are divided into three groups. One group is cultured with 21% of O2 as a control group. Another group is cultured with 1% of O2 for 8 hours as a hypoxic group. The other group is treated with 1 μM of 2-ME2 for 16 hours and then cultured with 1% of O2 for 8 hours as a 2-ME2 treated hypoxic group.

Bmi-1 = Bmi-1 expressions in the PCCs with hypoxic treatment, Western blot; format: cell-based, C57BL/6 mice
Description: as §1
The relationship between the HIF-1α activation and the Bmi-1 expressions is further analyzed by the Western blot analysis in this example. […] One group of the PCCs is transfected with LV-Bmi-1 to transient express the Bmi-1. Another group of the PCCs is treated with 1 μM of 2-ME2 for 16 hours and then transfected with the LV-Bmi-1. The other group of the PCCs is transfected with LV-GFP as the control group. In FIG. 6B, the PCCs transfected with the LV-Bmi-1 overexpress the Bmi-1. However, the overexpressions of the Bmi-1 are not affected by the pretreatment of the PCCs with 2-ME2. […]

Row | SMILES | proliferation index (PI) of the NSCs (NSCs) | neurological recovery in the body swing test (ischemic rats) | translocation of the HIF-1α to the nucleus under hypoxia (HIF-1α) | overexpressions of the Bmi-1 in PCCs transfected with the LV-Bmi-1 (Bmi-1; 1 μM 2-ME2 for 16 hours before transfection, FIG. 6B) | Bmi-1 expressions of the PCCs (Bmi-1; 1 μM 2-ME2 for 16 hours, hypoxic treatment, FIG. 6C)
1 | COC(=O)C1=CO[C@@H](O)[C@@H]2C(COC(=O)[C@@H](N)Cc3ccccc3)=CC[C@H]12 [Compound 1] | 6.77 | much more neurological recovery |  |  | 
2 | COc1cc2c(cc1O)CC[C@@H]1[C@@H]2CC[C@]2(C)[C@@H](O)CC[C@@H]12 [Compound 2-ME2, 2-Methoxyestradiol, reference compound] |  |  | abolishes the translocation | not affected | reduced
